Measurements: patent US8809328B2, “Imidazole derivative” (National University Corporation Shizuoka University, priority 2011, dated 2014)

Tests used:
[1] = tested on: rice (Nipponbare) (Oryza sativa L. cv. Nipponbare); test: Influence of AOH on soil cultivation of rice (pot cultivation); assay type: in vivo
Description: Rice (Nipponbare) (Oryza sativa L. cv. Nipponbare) was sown on Apr. 29, 2011, and each of grown seedlings was transplanted to a pot (1/5000a pot) filled with soil which contains a fertilizer comprising N (1440 mg), P2O5 (12 mg), K2O (760 mg) and CaO (806 mg) on June 7th, and was soil-cultivated in a greenhouse (28° C.) under any one of seven types of cultivation conditions of the following (1) to (7) until September 24th. Supply of water was performed by providing two liter of tap water or tap water to which AOH was added every week (see below).
(1) Tap water was provided during pot cultivation.
(2) Tap water to which AOH was added such that the final concentration became 50 μM was provided for two weeks (from June 7th to June 20th) in the planting stage. Tap water was provided in the other period.
(3) Tap water to which AOH was added such that the final concentration became 50 μM was provided for two weeks (from July 4th to July 17th) in the tillering stage. Tap water was provided in the other period.
(4) Tap water added to which AOH was added such that the final concentration became 50 μM was provided for two weeks (from July 25th to August 7th) in the topdressing stage for panicle formation. Tap water was provided in the other period.
(5) Tap water added to which AOH was added such that the final concentration became 50 μM was provided for two weeks (from August 15th to August 28th) in the topdressing stage for ripening. Tap water was provided in the other period. […]
(7) Tap water to which AOH was added such that the final concentration became 50 μM was provided during pot cultivation.
Brown rice and plant bodies soil-cultivated were dried at 30° C. for 15 days, and brown rice weight (both of weight per plant and weight per 100 brown rice grains), panicle length, culm length, number of panicles, number of tillers, and aerial part weight were measured.

[2] = tested on: rice (Nipponbare) (Oryza sativa L. cv. Nipponbare); test: Influence of AOH on soil cultivation of rice (field cultivation); assay type: in vivo
Description: Rice (Nipponbare) (Oryza sativa L. cv. Nipponbare) was used and cultivated in a field as follows. As cultivation conditions, five sections of (1) to (5) were set.
Rice (Nipponbare) (Oryza sativa L. cv. Nipponbare) was sown in a nursery box on Apr. 29, 2011, and provided with a total of 15 liters of tap water or tap water to which AOH was added for two weeks from May 24th while raising seedling in the nursery box. On June 7th, each of grown seedlings was transplanted to the field. The planting density was set to the interrow space of 30 cm and the planting distance of 15 cm (three reproductions of 3×3.3 m per one section). As basal fertilizer, 50 L of tap water or tap water to which AOH was added per section was supplied on June 7th. The cultivation was continued, and as topdressing for panicle formation, 50 L of tap water or tap water to which AOH was added per section was supplied on July 25th. Plant bodies were harvested on October 12th.
(1) Tap water was used as the culture fluid during seedling raising, the basal fertilizer, and the topdressing for panicle formation.
(2) Tap water to which AOH was added such that the final concentration became 0.5 mM was provided as the culture fluid during seedling raising. Tap water was used as the basal fertilizer, and the topdressing for panicle formation.
(3) Tap water to which AOH was added such that the final concentration became 1.0 mM was provided as the culture fluid during seedling raising. Tap water was used as the basal fertilizer and the topdressing for panicle formation.
(4) Tap water to which AOH was added such that the final concentration became 0.5 mM was provided as the basal fertilizer. Tap water was used as the culture fluid during seedling raising and the topdressing for panicle formation.
(5) Tap water to which AOH was added such that the final concentration became 0.5 mM was provided as the topdressing for panicle formation. Tap water was used as the culture fluid during seedling raising and the basal fertilizer.
Brown rice was dried, and total brown rice weight, hull weight, non-sieved brown rice weight and sieved brown rice, per 10 plant bodies, and thousand kernel weight were measured.

[3] = 50 μM AOH, topdressing stage for panicle formation
[4] = 50 μM AOH, topdressing stage for ripening
[5] = applying AOH all the time, vs control
[6] = 0.5 mM AOH during seedling raising
[7] = 0.5 mM AOH, topdressing at panicle formation
[8] = 1.0 mM AOH during seedling raising
[9] = per 10 plants, 0.5 mM AOH as basal fertilizer
[10] = per 10 plants, 0.5 mM AOH during seedling raising
[11] = per 10 plants, 0.5 mM AOH, topdressing at panicle formation
[12] = per 10 plants, 1.0 mM AOH during seedling raising

## O=c1[nH]c2nn[nH]c(=O)c2[nH]1 [AOH, 3H-imidazo[4,5-d][1,2,3]triazin-4,6(5H,7H)-dione]
[1]; 5 μM AOH, all the time
  Aerial part: 151 ± 6.19 g
  Brown rice weight (g/100 grains): 2.13 ± 0.09 g/100 grains
  Brown rice weight (g/plant): 59.3 ± 2.27 g/plant
  Culm length: 89.7 ± 6.40 cm
  Increasing rate of aerial part relative to control: 30%
  Increasing rate of brown rice weight per plant relative to control: 42%
  Increasing rate of number of panicles relative to control: 24%
  Number of tillers: 37.9 ± 3.71
  Panicle length: 24.5 ± 2.24 cm
  number of panicles: 32.8 ± 2.48
[1]; 50 μM AOH, all the time
  Aerial part: 147 ± 9.63 g
  Brown rice weight (g/100 grains): 2.15 ± 0.16 g/100 grains
  Brown rice weight (g/plant): 58.2 ± 3.76 g/plant
  Culm length: 92.3 ± 5.64 cm
  Increasing rate of aerial part relative to control: 27%
  Increasing rate of brown rice weight per plant relative to control: 40%
  Increasing rate of number of panicles relative to control: 23%
  Number of tillers: 35.7 ± 4.15
  Panicle length: 24.4 ± 1.96 cm
  number of panicles: 32.7 ± 4.03
[1]; 50 μM AOH, planting stage
  Aerial part: 125 ± 21.2 g
  Brown rice weight (g/100 grains): 2.11 ± 0.07 g/100 grains
  Brown rice weight (g/plant): 46.6 ± 9.43 g/plant
  Culm length: 97.1 ± 12.1 cm
  Increasing rate of brown rice weight per plant relative to control: 12%
  Number of tillers: 34.6 ± 2.70
  Panicle length: 23.5 ± 1.61 cm
  number of panicles: 27.8 ± 4.26
[1]; 50 μM AOH, tillering stage
  Aerial part: 112 ± 30.0 g
  Brown rice weight (g/100 grains): 2.12 ± 0.12 g/100 grains
  Brown rice weight (g/plant): 42.3 ± 12.2 g/plant
  Culm length: 94.5 ± 4.63 cm
  Number of tillers: 30.9 ± 3.67
  Panicle length: 26.2 ± 1.03 cm
  number of panicles: 23.0 ± 5.44
[1]; [3]
  Aerial part: 134 ± 16.5 g
  Brown rice weight (g/100 grains): 2.12 ± 0.07 g/100 grains
  Brown rice weight (g/plant): 53.7 ± 3.59 g/plant
  Culm length: 90.2 ± 6.15 cm
  Increasing rate of brown rice weight per plant relative to control: 29%
  Number of tillers: 31.6 ± 3.60
  Panicle length: 24.5 ± 1.61 cm
  number of panicles: 30.5 ± 4.50
[1]; [4]
  Aerial part: 131 ± 13.3 g
  Brown rice weight (g/100 grains): 2.18 ± 0.08 g/100 grains
  Brown rice weight (g/plant): 53.2 ± 2.61 g/plant
  Culm length: 92.8 ± 3.98 cm
  Increasing rate of brown rice weight per plant relative to control: 28%
  Number of tillers: 31.4 ± 3.91
  Panicle length: 24.0 ± 2.07 cm
  number of panicles: 28.8 ± 4.67
[1]; [5]
  aerial part weight: increased more than the control
  number of panicles: increased more than the control
[1]; applying AOH in the topdressing stage for panicle formation or later, vs control
  brown rice weight per plant: increased more than the control
[2]; 0.5 mM AOH as basal fertilizer
  Increasing rate of sieved brown rice relative to control: 10.5%
  Thousand kernel weight: 23.5 ± 0.6 g
[2]; [6]
  Increasing rate of sieved brown rice relative to control: 8.9%
  Thousand kernel weight: 23.0 ± 0.5 g
[2]; [7]
  Increasing rate of sieved brown rice relative to control: 7.2%
  Thousand kernel weight: 23.4 ± 0.5 g
[2]; [8]
  Increasing rate of sieved brown rice relative to control: 10.2%
  Thousand kernel weight: 23.5 ± 0.3 g
[2]; applying AOH, vs control
  Hull weight: increased more than the control
  Sieved brown rice: increased more than the control
  non-sieved brown rice weight: increased more than the control
  total brown rice weight: increased more than the control
[2]; [9]
  Hull weight: 288 ± 23.9 g
  Non-sieved brown rice weight: 230 ± 19.7 g
  Sieved brown rice: 222 ± 19.8 g
  Total weight: 644 ± 49.5 g
[2]; [10]
  Hull weight: 283 ± 35.0 g
  Non-sieved brown rice weight: 227 ± 28.9 g
  Sieved brown rice: 218 ± 29.0 g
  Total weight: 630 ± 71.4 g
[2]; [11]
  Hull weight: 279 ± 24.9 g
  Non-sieved brown rice weight: 224 ± 20.9 g
  Sieved brown rice: 215 ± 20.7 g
  Total weight: 643 ± 54.1 g
[2]; [12]
  Hull weight: 284 ± 24.4 g
  Non-sieved brown rice weight: 228 ± 20.1 g
  Sieved brown rice: 221 ± 19.5 g
  Total weight: 638 ± 59.6 g
